The test system of experiment [1] is TNF-α, U937 human histiocytic lymphoma cell line. The experiment is described as follows: LPS stimulation of TNF production by U937 cells. The format is cell-based. The following applies: for inhibition at 1 µM: U-937, @ 1.0 uM, read-out: U937 Cell % inhib @ conc.; for IC50: read-out: U937 Cell IC50; for U937 Cell % inhib @ conc. (uM): @ 1.0 uM. How it is done: Maintenance and Differentiation of the U937 Human Histiocytic Lymphoma Cell Line:
Fifty million cells in 100 ml media were induced to terminal monocytic differentiation by 24 hour incubation with 20 ng/ml phorbol 12-myristate 13-acetate (Sigma). The cells were washed by centrifugation (200×g for 5 min) and resuspended in 100 ml fresh medium. After 24-48 hours, the cells were harvested, centrifuged, and resuspended in culture medium at 2 million cells/ml.
LPS Stimulation of TNF Production by U937 Cells:
Compounds were prepared as 10 mM stock solutions in DMSO and diluted in culture medium to yield a final DMSO concentration of 0.1% in the cell assay. LPS (E coli, 100 ng/ml final concentration) was then added at a volume of 0.02 ml. After 4 hour incubation at 37° C., the amount of TNF-α released in the culture medium was quantitated by ELISA. Inhibitory potency is expressed as IC50 (μM).
In vitro whole cell assay for measuring the ability of the compounds to inhibit TNF production in human U937 cells stimulated with LPS are shown in the column identified as: • “U937 Cell IC50, uM or % inhib @ conc., (uM)”

The target in another experiment is T1, human p38 kinase alpha (Homo sapiens, UniProt Q16539).
T1 construct: GST (N, cleaved yes); made in house; host or cells: E. coli DH10B
The experiment is described as follows: p38 kinase in vitro assay, phosphorylation of biotinylated PHAS-I with 32P-ATP. The format is biochemical. Conditions: in vitro P38-alpha kinase inhibition; read-out: P38 alpha kinase IC50.

[2] abbreviates: Homo sapiens, TNF production in human U937 cells stimulated with LPS.
Where [3] appears, read: Homo sapiens, U-937, TNF production in human U937 cells stimulated with LPS.
The mark [4] stands for this setting: TNF production in human U937 cells stimulated with LPS.
The mark [5] stands for this setting: Homo sapiens, U-937, TNF production, human U937 cells stimulated with LPS.
Setting [6] is: TNF production, U937 cells stimulated with LPS.
Where [7] appears, read: Homo sapiens, TNF production, U937 cells stimulated with LPS.

Where two headings read alike, the source gives them in different places.

T1 sequence (Q16539 whole entry): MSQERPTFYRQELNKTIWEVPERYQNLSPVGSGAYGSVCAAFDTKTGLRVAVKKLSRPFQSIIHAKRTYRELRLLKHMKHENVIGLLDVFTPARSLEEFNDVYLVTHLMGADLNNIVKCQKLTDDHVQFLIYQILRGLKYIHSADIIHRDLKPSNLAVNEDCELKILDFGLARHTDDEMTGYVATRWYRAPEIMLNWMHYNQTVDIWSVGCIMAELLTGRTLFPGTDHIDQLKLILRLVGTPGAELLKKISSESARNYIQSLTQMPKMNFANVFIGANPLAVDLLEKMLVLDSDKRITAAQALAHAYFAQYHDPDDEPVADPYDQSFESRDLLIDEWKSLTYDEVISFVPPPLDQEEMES

Take `Cc1ccc(S(=O)(=O)NC(Cc2ccccc2)C(=O)NC(C)c2[nH]nc(-c3ccc(F)cc3)c2-c2ccncc2)cc1` (stereo not shown) [Example B-0560]: in experiment [1] (setting [2]), the inhibition at 1 µM amounted to 31%. The IC50 at human p38 kinase alpha is 2570 nM.
As to `CC(NS(=O)(=O)C=Cc1ccccc1)c1[nH]nc(-c2ccc(F)cc2)c1-c1ccncc1` (stereo not shown) [Example B-0565], the IC50 in experiment [1] (setting [3]) is 590 nM; at human p38 kinase alpha it was 230 nM.
Taken in the same sequence, the figures for `CC(NS(C)(=O)=O)c1[nH]nc(-c2ccc(F)cc2)c1-c1ccncc1` (stereo not shown) [Example B-0573] were 1700 nM and 360 nM.
Take `CC(NC(=O)NCc1ccccc1)c1[nH]nc(-c2ccc(F)cc2)c1-c1ccncc1` (stereo not shown) [Example B-0580]: the IC50 stood at 840 nM in experiment [1] (setting [4]) and 2230 nM on human p38 kinase alpha.
Turning to `CC(NC(=O)N1CCCC1)c1[nH]nc(-c2ccc(F)cc2)c1-c1ccncc1` (stereo not shown) [Example B-0581], the values for the IC50 (in experiment [1] (setting [3]); on human p38 kinase alpha) were 2170 nM and 260 nM, respectively.
Taken in the same sequence, the figures for `CCCNC(=O)NC(C)c1[nH]nc(-c2ccc(F)cc2)c1-c1ccncc1` (stereo not shown) [Example B-0590] were 38000 nM and 1570 nM.
Regarding `CC(NC(=O)NC(C)c1[nH]nc(-c2ccc(F)cc2)c1-c1ccncc1)c1ccccc1` (stereo not shown) [Example B-0591], in experiment [1] (setting [4]), the “U937 Cell % inhib @ conc. (uM)” value is recorded as 29.0% @. At human p38 kinase alpha, the IC50 stood at 3590 nM.
Taken in the same sequence, the figures for `CC(NC(=O)Nc1cccc(F)c1)c1[nH]nc(-c2ccc(F)cc2)c1-c1ccncc1` (stereo not shown) [Example B-0595] were 22.0% @ and 2420 nM.
For `COc1ccc(NC(=O)NC(C)c2[nH]nc(-c3ccc(F)cc3)c2-c2ccncc2)c(OC)c1` (stereo not shown) [Example B-0599], the “U937 Cell % inhib @ conc. (uM)” value in experiment [1] (setting [4]) is recorded as 21.0% @. Moreover, on human p38 kinase alpha, the IC50 is 4160 nM.
`CC(NC(=O)c1cc(Cl)cc(Cl)c1)c1[nH]nc(-c2ccc(F)cc2)c1-c1ccncc1` (stereo not shown) [Example B-0675]: the “U937 Cell % inhib @ conc. (uM)” value in experiment [1] (setting [4]) amounted to 3.0% @. Also, the half-inhibitory concentration (IC50) on human p38 kinase alpha was found to be 5420 nM.
The matching figures for `CC(NC(=O)c1cccc(C#N)c1)c1[nH]nc(-c2ccc(F)cc2)c1-c1ccncc1` (stereo not shown) [Example B-0676]: 22.0% @ and 2090 nM.
The matching figures for `CC(NC(=O)c1cccc(C(F)(F)F)c1F)c1[nH]nc(-c2ccc(F)cc2)c1-c1ccncc1` (stereo not shown) [Example B-0687]: 15.0% @ and 10100 nM.
Consider `Cc1cccc(C(=O)NC(C)c2[nH]nc(-c3ccc(F)cc3)c2-c2ccncc2)c1` (stereo not shown) [Example B-0692], for which the “U937 Cell % inhib @ conc. (uM)” value in experiment [1] (setting [4]) came to 29.0% @. Further, the IC50 at human p38 kinase alpha stood at 380 nM.
The matching figures for `CC(NC(=O)c1cccc(F)c1)c1[nH]nc(-c2ccc(F)cc2)c1-c1ccncc1` (stereo not shown) [Example B-0694]: 21.0% @ and 620 nM.
The matching figures for `CC(NC(=O)c1ccccc1F)c1[nH]nc(-c2ccc(F)cc2)c1-c1ccncc1` (stereo not shown) [Example B-0699]: 31.0% @ and 340 nM.
Regarding `CC(NC(=O)c1ccc(C(F)(F)F)cc1)c1[nH]nc(-c2ccc(F)cc2)c1-c1ccncc1` (stereo not shown) [Example B-0704], the “U937 Cell % inhib @ conc. (uM)” value in experiment [1] (setting [4]) is 29.0% @. The IC50 at human p38 kinase alpha amounted to 2190 nM.
The matching figures for `CC(NC(=O)c1cccs1)c1[nH]nc(-c2ccc(F)cc2)c1-c1ccncc1` (stereo not shown) [Example B-0705]: 21.0% @ and 440 nM.
In the case of `COc1ccc(S(=O)(=O)NC(Cc2ccccc2)c2[nH]nc(-c3ccc(F)cc3)c2-c2ccncc2)cc1OC` (stereo not shown) [Example B-0722], the IC50 in experiment [1] (setting [3]) is > 1000 nM; at human p38 kinase alpha, 70 nM.
Take `CNC(=O)NC(Cc1ccccc1)c1[nH]nc(-c2ccc(F)cc2)c1-c1ccncc1` (stereo not shown) [Example B-0730]: the inhibition at 1 µM in experiment [1] (setting [2]) turned out to be 11%. Further, the IC50 at human p38 kinase alpha turned out to be 250 nM.
Regarding `CN(C(=O)NC(Cc1ccccc1)c1[nH]nc(-c2ccc(F)cc2)c1-c1ccncc1)c1ccccc1` (stereo not shown) [Example B-0731], the IC50 in experiment [1] (setting [3]) was > 1000 nM; on human p38 kinase alpha, 870 nM.
Consider `O=S(=O)(NC(Cc1ccccc1)c1[nH]nc(-c2ccc(F)cc2)c1-c1ccncc1)c1cccs1` (stereo not shown) [Example B-0765], for which the inhibition at 1 µM in experiment [1] (setting [2]) was 29%. Moreover, on human p38 kinase alpha, the IC50 was determined as 300 nM.
As to `CNC(=O)NC(Cc1ccccc1)c1[nH]nc(-c2ccc(F)cc2)c1-c1ccncc1` (stereo not shown) [Example B-0775], the IC50 is > 1000 nM in experiment [1] (setting [3]) and 600 nM on human p38 kinase alpha.
On to `CN(C(=O)NC(Cc1ccccc1)c1[nH]nc(-c2ccc(F)cc2)c1-c1ccncc1)c1ccccc1` (stereo not shown) [Example B-0776], for which the IC50 is > 1000 nM in experiment [1] (setting [4]) and 900 nM at human p38 kinase alpha.
For the molecule `O=C(NC(Cc1ccccc1)c1[nH]nc(-c2ccc(F)cc2)c1-c1ccncc1)C1CCCN1` (stereo not shown) [Example B-0794], the “U937 Cell % inhib @ conc. (uM)” value in experiment [1] (setting [4]) is recorded as 2.0% @. In addition, the IC50 on human p38 kinase alpha came to 2900 nM.
For `O=C(NC(Cc1ccccc1)c1[nH]nc(-c2ccc(F)cc2)c1-c1ccncc1)C1CCCN1` (stereo not shown) [Example B-0795], in experiment [1] (setting [4]), the “U937 Cell % inhib @ conc. (uM)” value is 11.0% @. Also, at human p38 kinase alpha, the IC50 was found to be 1900 nM.
Regarding `O=C(NC(Cc1ccccc1)c1[nH]nc(-c2ccc(F)cc2)c1-c1ccncc1)c1ccc(F)cc1` (stereo not shown) [Example B-0800], the IC50 was > 1000 nM in experiment [1] (setting [5]) and 1010 nM on human p38 kinase alpha.
The matching figures for `C=CCOC(=O)NC(Cc1ccccc1)c1[nH]nc(-c2ccc(F)cc2)c1-c1ccncc1` (stereo not shown) [Example B-0801]: > 1000 nM and 670 nM.
Taken in the same sequence, the figures for `O=C(NC(Cc1ccccc1)c1[nH]nc(-c2ccc(F)cc2)c1-c1ccncc1)C1CC1` (stereo not shown) [Example B-0805] were > 1000 nM and 710 nM.
On to `O=C(NC(Cc1ccccc1)c1[nH]nc(-c2ccc(F)cc2)c1-c1ccncc1)c1cccc(Br)c1` (stereo not shown) [Example B-0806], for which the values for the IC50 (in experiment [1] (setting [5]); on human p38 kinase alpha) were > 1000 nM and 3280 nM, respectively.
Taken in the same sequence, the figures for `O=C(NC(Cc1ccccc1)c1[nH]nc(-c2ccc(F)cc2)c1-c1ccncc1)c1ccno1` (stereo not shown) [Example B-0808] were > 1000 nM and 3090 nM.
`CC(=O)OC(C)C(=O)NC(Cc1ccccc1)c1[nH]nc(-c2ccc(F)cc2)c1-c1ccncc1` (stereo not shown) [Example B-0809]: the “U937 Cell % inhib @ conc. (uM)” value in experiment [1] (setting [6]) is recorded as 7.0% @. For the same molecule, at human p38 kinase alpha, the IC50 was 1220 nM.
Consider `COCC(=O)NC(Cc1ccccc1)c1[nH]nc(-c2ccc(F)cc2)c1-c1ccncc1` (stereo not shown) [Example B-0810], for which the IC50 is > 1000 nM in experiment [1] (setting [5]) and 1110 nM on human p38 kinase alpha.
As to `COc1ccccc1C(=O)NC(Cc1ccccc1)c1[nH]nc(-c2ccc(F)cc2)c1-c1ccncc1` (stereo not shown) [Example B-0811], the inhibition at 1 µM in experiment [1] (setting [7]) came to 2%. Also, the IC50 on human p38 kinase alpha worked out at 2790 nM.
As to `O=C(NC(Cc1ccccc1)c1[nH]nc(-c2ccc(F)cc2)c1-c1ccncc1)c1ccccc1C(F)(F)F` (stereo not shown) [Example B-0812], the values for the IC50 (in experiment [1] (setting [5]); at human p38 kinase alpha) were > 1000 nM and 2120 nM, respectively.
For the molecule `O=C(NC(Cc1ccccc1)c1[nH]nc(-c2ccc(F)cc2)c1-c1ccncc1)c1ccc(F)c(F)c1F` (stereo not shown) [Example B-0813], the IC50 was > 1000 nM in experiment [1] (setting [5]) and 3020 nM on human p38 kinase alpha.
The matching figures for `COc1ccc(CC(=O)NC(Cc2ccccc2)c2[nH]nc(-c3ccc(F)cc3)c2-c2ccncc2)cc1OC` (stereo not shown) [Example B-0815]: > 1000 nM and 2110 nM.
As to `COc1ccc(CC(=O)NC(Cc2ccccc2)c2[nH]nc(-c3ccc(F)cc3)c2-c2ccncc2)cc1` (stereo not shown) [Example B-0816], the IC50 in experiment [1] (setting [5]) is > 1000 nM; on human p38 kinase alpha, 3460 nM.
The matching figures for `Cc1ccc(C(=O)NC(Cc2ccccc2)c2[nH]nc(-c3ccc(F)cc3)c2-c2ccncc2)cc1` (stereo not shown) [Example B-0818]: > 1000 nM and 4970 nM.
The matching figures for `O=C(NC(Cc1ccccc1)c1[nH]nc(-c2ccc(F)cc2)c1-c1ccncc1)c1ccccc1` (stereo not shown) [Example B-0819]: > 1000 nM and 1080 nM.
Take `O=C(NC(Cc1ccccc1)c1[nH]nc(-c2ccc(F)cc2)c1-c1ccncc1)C1CCCC1` (stereo not shown) [Example B-0820]: in experiment [1] (setting [7]), the inhibition at 1 µM is 3%. Besides, the IC50 at human p38 kinase alpha was 1640 nM.
Consider `O=C(NC(Cc1ccccc1)c1[nH]nc(-c2ccc(F)cc2)c1-c1ccncc1)c1ccccn1` (stereo not shown) [Example B-0823], for which the figures for the IC50 (in experiment [1] (setting [5]); on human p38 kinase alpha) were > 1000 nM and 2390 nM, respectively.
The matching figures for `CC(C)C(=O)NC(Cc1ccccc1)c1[nH]nc(-c2ccc(F)cc2)c1-c1ccncc1` (stereo not shown) [Example B-0831]: > 1000 nM and 900 nM.
Regarding `O=C(NC(Cc1ccccc1)c1[nH]nc(-c2ccc(F)cc2)c1-c1ccncc1)C1CC1` (stereo not shown) [Example B-0837], the IC50 in experiment [1] (TNF production, human U937 cells stimulated with LPS) is > 1000 nM; at human p38 kinase alpha, 1960 nM.
With `CC(=O)OC(C)C(=O)NC(Cc1ccccc1)c1[nH]nc(-c2ccc(F)cc2)c1-c1ccncc1` (stereo not shown) [Example B-0841], the “U937 Cell % inhib @ conc. (uM)” value in experiment [1] (setting [6]) was found to be 36.0% @. Further, the IC50 at human p38 kinase alpha is 320 nM.

In general, IC50 refers to the midpoint of a concentration-inhibition curve.

The values are drawn from patent publication US6979686B1, “Substituted pyrazoles as p38 kinase inhibitors” (Pharmacia Corporation, priority 2001, dated 2005).
